Key:
Assay in all cases: relative viability (nuclei count vs DMSO), 5 days (fraction); higher = more cells survive
[1] = compound: OCc1c[nH]c2ccccc12 [Indole-3-carbinol] + Cc1nc(NC(=O)N2CCC[C@H]2C(N)=O)sc1-c1ccnc(C(C)(C)C(F)(F)F)c1 [Alpelisib] (partner 2 µM)
In short: (§1)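 After 5 days of treatment, lung cancer cells in 1536-well plates were fixed and stained in a single step (final 0.05% Triton X-100, 1% formaldehyde, 1 ug/ml Hoechst) and their nuclei counted on 4× images. Treatment had been applied by pin tool the day after seeding as one drug alone or as a fixed anchor-drug dose with five library-drug doses (not always all listed) in √10 steps. Relative viability is the nuclei count of treated wells divided by that of vehicle wells, and values are medians of duplicate plates.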

[2] = compound: OCc1c[nH]c2ccccc12 [Indole-3-carbinol] + O=C(c1cc(Cc2n[nH]c(=O)c3ccccc23)ccc1F)N1CCN(C(=O)C2CC2)CC1 [Olaparib] (partner 8 µM)
In short: as §1

[3] = compound: OCc1c[nH]c2ccccc12 [Indole-3-carbinol] + O=C(CCCCCCC(=O)Nc1ccccc1)NO [Vorinostat] (partner 1 µM)
In short: as §1

[4] = compound: OCc1c[nH]c2ccccc12 [Indole-3-carbinol] + Nc1nc2[nH]cc(CCc3ccc(C(=O)N[C@@H](CCC(=O)O)C(=O)O)cc3)c2c(=O)[nH]1 [Pemetrexed] (partner 0.2 µM)
In short: as §1

[5] = compound: OCc1c[nH]c2ccccc12 [Indole-3-carbinol] + Nc1ncn([C@H]2C[C@H](O)[C@@H](CO)O2)c(=O)n1 [Decitabine] (partner 2 µM)
In short: as §1

Cell Line | relative viability ([1]; first compound 0.253 µM) | relative viability ([1]; first compound 0.8 µM) | relative viability ([1]; first compound 2.53 µM) | relative viability ([1]; first compound 8 µM) | relative viability ([2]; first compound 0.253 µM) | relative viability ([2]; first compound 0.8 µM) | relative viability ([2]; first compound 2.53 µM) | relative viability ([2]; first compound 8 µM) | relative viability ([3]; first compound 0.253 µM) | relative viability ([3]; first compound 0.8 µM) | relative viability ([3]; first compound 2.53 µM) | relative viability ([3]; first compound 8 µM) | relative viability ([4]; first compound 0.253 µM) | relative viability ([4]; first compound 0.8 µM) | relative viability ([4]; first compound 2.53 µM) | relative viability ([4]; first compound 8 µM) | relative viability ([5]; first compound 0.253 µM) | relative viability ([5]; first compound 0.8 µM) | relative viability ([5]; first compound 2.53 µM) | relative viability ([5]; first compound 8 µM)
HCC-78 | 0.346 | 0.309 | 0.269 | 0.334 | 0.958 | 0.758 | 0.798 | 0.819 | 0.508 | 0.533 | 0.443 | 0.452 | 0.89 | 0.947 | 0.929 | 0.891 | 0.681 | 0.715 | 0.676 | 0.741
UMC-11 | 0.933 | 1.02 | 0.981 | 0.955 | 0.549 | 0.359 | 0.499 | 0.944 | 0.332 | 0.377 | 0.432 | 0.398 | 0.787 | 0.757 | 0.751 | 0.717 | 0.608 | 0.638 | 0.709 | 0.593
NCI-H1975 | 0.635 | 0.734 | 0.736 | 0.583 | 0.801 | 0.847 | 0.822 | 0.77 | 0.663 | 0.754 | 0.73 | 0.712 | 0.288 | 0.294 | 0.293 | 0.311 | 0.392 | 0.38 | 0.415 | 0.436
COR-L23 | 0.818 | 1.06 | 0.673 | 0.601 | 0.37 | 0.411 | 0.372 | 0.31 | 0.445 | 0.492 | 0.459 | 0.371 | 0.193 | 0.202 | 0.198 | 0.209 | 0.428 | 0.465 | 0.414 | 0.385
SW 1573 | 0.724 | 0.833 | 0.822 | 0.761 | 0.499 | 0.526 | 0.546 | 0.479 | 0.764 | 0.731 | 1.05 | 0.76 | 0.803 | 0.846 | 0.881 | 0.975 | 0.48 | 0.535 | 0.636 | 0.417
NCI-H2126 | 0.751 | 0.808 | 0.714 | 0.764 | 0.859 | 1 | 0.934 | 0.87 | 0.734 | 0.834 | 0.718 | 0.752 | 0.664 | 0.746 | 0.624 | 0.651 | 0.6 | 0.601 | 0.547 | 0.54
